Data: the supplement of paper PMC8960247
± gives the standard error.

Assays:
621-103 (TSC2-rescued) = experiment: relative viability vs DMSO; higher = less cytotoxic; conditions: serum: 10% FBS, 72 h
621-102 (TSC2-deficient) = experiment: as above; conditions: serum: 10% FBS, 72 h
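Note: immortalized renal angiomyolipoma cells stably carrying empty vector or TSC2, dosed in 384-well plates in DMEM, viability normalized to vehicle-treated wells within each plate.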

| SMILES | relative viability (621-103 (TSC2-rescued); 0.0001 µM) [%] | relative viability (621-103 (TSC2-rescued); 0.001 µM) [%] | relative viability (621-103 (TSC2-rescued); 0.01 µM) [%] | relative viability (621-103 (TSC2-rescued); 0.1 µM) [%] | relative viability (621-103 (TSC2-rescued); 1 µM) [%] | relative viability (621-103 (TSC2-rescued); 10 µM) [%] | relative viability (621-102 (TSC2-deficient); 0.0001 µM) [%] | relative viability (621-102 (TSC2-deficient); 0.001 µM) [%] | relative viability (621-102 (TSC2-deficient); 0.01 µM) [%] | relative viability (621-102 (TSC2-deficient); 0.1 µM) [%] | relative viability (621-102 (TSC2-deficient); 1 µM) [%] | relative viability (621-102 (TSC2-deficient); 10 µM) [%] |
| --- | --- | --- | --- | --- | --- | --- | --- | --- | --- | --- | --- | --- |
| O=C(NC[C@H](O)CO)c1ccncc1Nc1ccc(I)cc1F | 101.8 ± 0.97 | 104 ± 1.9 | 105 ± 1.4 | 103.5 ± 0.29 | 99.919 ± 0.052 | 78.4 ± 1.2 | 100.3 ± 0.48 | 92 ± 13 | 101 ± 3.2 | 97.01 ± 0.18 | 90.5 ± 2 | 55.7 ± 0.91 |
| O=C(NOCC1CC1)c1ccc(F)c(F)c1Nc1ccc(I)cc1Cl | 97.56 ± 0.82 | 92.3 ± 5.6 | 98.9 ± 2.7 | 99.9 ± 2.7 | 96.7 ± 3.3 | 74.9 ± 1.4 | 101 ± 2.5 | 98 ± 1.2 | 104 ± 1.8 | 97.3 ± 1.5 | 98.4 ± 1.5 | 81.4 ± 0.87 |
| O=C1NC(=O)/C(=C/c2ccc(-c3ccc(F)cc3O)o2)S1 | 92.9 ± 9.3 | 95.3 ± 2.2 | 96.95 ± 0.74 | 101 ± 5.6 | 88.2 ± 2 | 108 ± 3.4 | 111 ± 2.5 | 109 ± 2.8 | 102 ± 1.2 | 96.7 ± 3.6 | 106 ± 2.1 | 90.8 ± 2.4 |
| O=C1NC(=O)/C(=C/c2ccc3c(c2)OC(F)(F)O3)S1 | 98.2 ± 7.7 | 91.4 ± 7.6 | 90.7 ± 1.1 | 95.5 ± 2.7 | 98.1 ± 6.7 | 88.49 ± 0.37 | 104 ± 2.5 | 97.7 ± 4.8 | 102 ± 1.9 | 104.3 ± 0.58 | 100.2 ± 0.23 | 102.4 ± 0.35 |
| O=C1NC(=O)/C(=C\c2ccc3nccnc3c2)S1 | 100.2 ± 0.99 | 96.5 ± 2.7 | 98.02 ± 0.75 | 100 ± 1.5 | 99.5 ± 1.9 | 98.8 ± 1.3 | 106 ± 1.9 | 114 ± 1.2 | 120.5 ± 1.1 | 108 ± 7.8 | 105.2 ± 0.38 | 110 ± 3.2 |
| OC(CN1CCN(c2cccc(Cl)c2)CC1)C(c1ccccc1)c1ccccc1 (stereo not given) | 83.9 ± 10 | 85.7 ± 8.3 | 95.1 ± 7.2 | 98.58 ± 0.47 | 83.3 ± 4.9 | 79.1 ± 4.4 | 102 ± 4.7 | 93.4 ± 2.8 | 104 ± 2.5 | 95.9 ± 2.9 | 102 ± 2.5 | 89.25 ± 0.44 |
| Oc1c2ccccc2c2c3c(cccc13)N=N2 | 100.6 ± 0.42 | 101 ± 1.9 | 101.1 ± 0.35 | 100.1 ± 0.67 | 98.2 ± 1.6 | 95.2 ± 2.7 | 104.7 ± 0.13 | 103 ± 4.5 | 105 ± 1.1 | 103 ± 1.3 | 102 ± 4 | 83.3 ± 2.2 |
| COc1cc2c(cc1O)CC[C@@H]1[C@@H]2CC[C@]2(C)[C@@H](O)CC[C@@H]12 [2-Methoxyestradiol] | 107 ± 2.6 | 103.2 ± 0.73 | 98.66 ± 0.82 | 98.8 ± 2 | 82.5 ± 3.2 | 53.7 ± 0.91 | 121 ± 1.9 | 118 ± 3.8 | 112 ± 2.2 | 107 ± 3.3 | 80 ± 2.5 | 39.8 ± 1.9 |
| C=CCNC1=C2C[C@@H](C)C[C@H](OC)[C@H](O)[C@@H](C)/C=C(\C)[C@H](OC(N)=O)[C@@H](OC)/C=C\C=C(/C)C(=O)NC(=CC1=O)C2=O [17-AAG (Geldanamycin)] | 104.5 ± 0.96 | 104 ± 3 | 72.4 ± 3.8 | 14.3 ± 0.16 | 6.05 ± 0.096 | 6.31 ± 0.22 | 105 ± 1.4 | 100.9 ± 0.99 | 72.2 ± 2.9 | 25.7 ± 0.57 | 23.2 ± 0.81 | 25.3 ± 0.31 |
| CO[C@H]1/C=C\C=C(/C)C(=O)NC2=CC(=O)C(NCCN(C)C)=C(C[C@@H](C)C[C@H](OC)[C@H](O)[C@@H](C)/C=C(\C)[C@@H]1OC(N)=O)C2=O [17-DMAG] | 90.6 ± 3 | 41 ± 1.2 | 5.591 ± 0.017 | 5.287 ± 0.051 | 6.16 ± 0.36 | 3.07 ± 0.31 | 76.2 ± 3.6 | 58 ± 3.6 | 28.6 ± 0.72 | 21.7 ± 0.8 | 26.3 ± 0.3 | 16.31 ± 0.12 |
